In publication PMC3608651, “A Broad Profile of Co-Dominant Epitopes Shapes the Peripheral Mycobacterium tuberculosis Specific CD8+ T-Cell Immune Response in South African Patients with Active Tuberculosis” (PLoS ONE, 2013):
Where two headings read alike, the source gives them in different places.

What was measured:
Assay type in all cases: binding
HLA-B*07:02 = HLA-B*07:02 (Homo sapiens, UniProt P01889); details: percent relative the binding of positive control peptide […]; duplicated experiments; positive binder >40%
HLA-A*30:02 [1] = target: T1, HLA-A*30:02 (Homo sapiens, UniProt P04439, D101N/D140H/D185E/E176R/F33S/G80R/H175R/K168Q/Q94H/R138E/R41S/V100E); details: duplicated experiments, positive binder >40%
HLA-C*07:01 = HLA-C*07:01 (Homo sapiens, UniProt P10321, K90N/S123Y); details: duplicated experiments, positive binder >40%
HLA-A*24:02 = HLA-A*24:02 (Homo sapiens, UniProt P04439, D101N/D140Y/D185E/E176V/E190D/F33S/G103R/G107R/I119L/I121M/I306V/K335N/L105A/L180Q/L300P/N151K/N90K/Q86E/Q94H/R106L/R138H/R89G/T104I/T345S/V100E/W191G/Y123F); details: duplicated experiments, positive binder >40%
HLA-A*30:02 [2] = target: T1, HLA-A*30:02
HLA-A*30:01 = HLA-A*30:01 (Homo sapiens, UniProt P04439, D140H/D185E/E176W/F33S/G80R/H175R/K168Q/R138E/R41S); details: duplicated experiments, positive binder >40%
HLA-A*68:01 = HLA-A*68:01 (Homo sapiens, UniProt P04439, A269V/D185E/E176V/E277Q/E87N/F33Y/G231S/I121M/I166T/I218V/L180W/L300P/L318F/N151K/P208A/P217A/Q86R/R169H/T345S); details: duplicated experiments, positive binder >40%
HLA-A*02:01 = HLA-A*02:01 (Homo sapiens, UniProt P04439, D140Y/D185E/D98H/E176V/E277Q/G131W/G231S/I119V/I121R/I166T/I218V/L300P/L318F/N151K/N90K/P208A/P217A/Q86G/Q94H/R138H/R169H/T345S); details: plate-bound monomer 0.5 µg/ml, duplicated experiments, positive binder >40%
HLA-B*58:01 = HLA-B*58:01 (Homo sapiens, UniProt P01889, A329T/C349S/D201E/D98Y/E176V/E187L/E204Q/E69T/G107R/I218V/I90N/K202T/L105A/L119I/N104I/N87E/Q89R/Q94S/R106L/R155S/R180L/R86G/S101N/S121R/S35A/S48A/T118I/V127L/V306I/V36M/Y140S/Y91M); details: duplicated experiments, positive binder >40%
HLA-A*30:02 [3] = target: T1, HLA-A*30:02; details: time points 0-8 h
[4] = percent relative the binding of positive control peptide KIQNFRVYY
[5] = percent relative the binding of positive control peptide KYFDEHYEY
[6] = percent relative the binding of positive control peptide RYLKDQQLL
[7] = peptide titrated 10−4 to 10−9 M
[8] = percent relative the binding of positive control peptide KTKDIVNGL
[9] = percent relative the binding of positive control peptide KTGGPIYKR
[10] = percent relative the binding of positive control peptide FLPSDFFPSV
[11] = percent relative the binding of positive control peptide IAMESIVIW
[12] = percent relative the binding of positive control peptide […]

Substance | Bind B*07:02 (HLA-B*07:02) | Bind A*30:02 (HLA-A*30:02 [1]; [4]) | Bind C*07:01 (HLA-C*07:01; [5]) | Bind A*24:02 (HLA-A*24:02; [6]) | Aff A*30:02 (ED50) (HLA-A*30:02 [2]; [7]) | Bind A*30:01 (HLA-A*30:01; [8]) | Bind A*68:01 (HLA-A*68:01; [9]) | Bind A*02:01 (HLA-A*02:01; [10]) | Bind B*58:01 (HLA-B*58:01; [11]) | O-rate A*30:02 (t1/2) (HLA-A*30:02 [3]) | Bind A*30:02 (HLA-A*30:02 [1]; [12]) | Bind C*07:01 (HLA-C*07:01; [12]) | Bind A*24:02 (HLA-A*24:02; [12]) | Aff A*30:02 (ED50) (HLA-A*30:02 [2]) | Bind A*30:01 (HLA-A*30:01; [12]) | Bind A*68:01 (HLA-A*68:01; [12]) | Bind A*02:01 (HLA-A*02:01; [12]) | Bind B*58:01 (HLA-B*58:01; [12])
AWGGSGSEA [Rv3875_42–50] | 6% | 90% | 29% | 4% | 8e-07 M | 16% | 11% | 4% | 6% | 1.7 h | – | – | – | – | – | – | – | –
AYHPQQFIY | 0% | – | – | – | – | – | – | – | – | 1.9 h | 111% | 43% | 60% | 1E -07 M | 6% | 5% | 13% | 35%
MTEQQWNFA [Rv3875_1–9] | 2% | 52% | 0% | 0% | 2e-08 M | 0% | 25% | 13% | 2% | 1.4 h | – | – | – | – | – | – | – | –
LVANNT RLW | 50% | – | – | – | – | – | – | – | – | 0.5 h | 68% | 26% | 88% | 5e-07 M | 2% | 38% | 21% | 50%
AGQAMASTE [Rv3875_79–87] | 9% | 58% | 28% | 0% | 5e-09 M | 20% | 13% | 0% | 11% | 2.3 h | – | – | – | – | – | – | – | –
SNLKFQDAY | 0% | – | – | – | – | – | – | – | – | 1.6 h | 124% | 52% | 23% | 2e-07 M | 0% | 18% | 11% | 14%
KAADMW GPS | 18% | – | – | – | – | – | – | – | – | 0.8 h | 103% | 34% | 4% | 7E -09 M | 1% | 17% | 33% | 21%
AAWGGSGSE [Rv3875_41–49] | 4% | 167% | 29% | 2% | 3e-07 M | 18% | 29% | 29% | 9% | 1.5 h | – | – | – | – | – | – | – | –
RSSNLKFQD | 3% | – | – | – | – | – | – | – | – | 1.6 h | 104% | 64% | 26% | 1E -05 M | 0% | 11% | 11% | 14%
NLKFQDAYN | 0% | – | – | – | – | – | – | – | – | 0.4 h | 123% | 7% | 0% | 1e-05 M | 0% | 9% | 8% | 0%
MKGDLQSSL | 17% | – | – | – | – | – | – | – | – | 2.8 h | 90% | 63% | 22% | 2e-05 M | 14% | 19% | 16% | 0%
AYHSMSSTH [Rv0288_68–76m1] | – | – | – | – | – | – | – | – | – | 0.5 h | 70% | – | – | 2e-07 M | – | – | – | –
LVRAYHSMS [Rv0288_65–73m1] | – | – | – | – | – | – | – | – | – | 0.9 h | 30% | – | – | 1e-08 M | 7% | – | – | –
PAVYLLDGL | 63% | – | – | – | – | – | – | – | – | 1 h | 120% | 17% | 38% | 9E -08 M | 0% | 2% | 9% | 0%
CGKAGCQT Y | 8% | – | – | – | – | – | – | – | – | 3 h | 138% | 5% | 32% | 8E -08 M | 28% | 60% | 44% | 35%
QQKWDATAT [Rv3875_55–63] | 9% | 60% | 4% | 0% | 9e-08 M | 29% | 9% | 0% | 8% | 1.7 h | – | – | – | – | – | – | – | –
TMLGHAGDM [Rv0288_10–18m1] | – | – | – | – | – | – | – | – | – | 0.6 h | 99% | – | 4% | 5e-06 M | – | – | 10% | –
DHAGDMAGY [Rv0288_13–21m1] | – | – | – | – | – | – | – | – | – | 0.3 h | 141% | – | – | 1e-08 M | – | – | – | –
